The source of these data is article PMC5107945, “Abscinazole-E3M, a practical inhibitor of abscisic acid 8′-hydroxylase for improving drought tolerance” (Scientific Reports, 2016).

Data set [1] deals with T1, Rice recombinant CYP701A6 (ent-kaurene oxidase) (Oryza sativa subsp. japonica, UniProt Q5Z5R4).
T1 construct: made in house; host or cells: insect cells (baculovirus vector)
T1 sequence (Q5Z5R4 1-505): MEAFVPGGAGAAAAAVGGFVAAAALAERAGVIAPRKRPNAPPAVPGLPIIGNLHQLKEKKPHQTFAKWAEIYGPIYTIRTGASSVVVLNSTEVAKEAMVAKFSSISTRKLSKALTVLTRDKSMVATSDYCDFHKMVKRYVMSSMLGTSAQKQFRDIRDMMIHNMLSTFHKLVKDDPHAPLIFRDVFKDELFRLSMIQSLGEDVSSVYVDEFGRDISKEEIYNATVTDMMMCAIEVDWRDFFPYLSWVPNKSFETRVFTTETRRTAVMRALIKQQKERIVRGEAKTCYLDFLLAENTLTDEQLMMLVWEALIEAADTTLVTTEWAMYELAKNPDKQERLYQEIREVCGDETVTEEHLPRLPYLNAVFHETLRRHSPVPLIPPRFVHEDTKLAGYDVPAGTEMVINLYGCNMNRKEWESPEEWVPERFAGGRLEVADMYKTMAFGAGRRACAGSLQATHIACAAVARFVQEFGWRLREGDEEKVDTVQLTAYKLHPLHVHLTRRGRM
The data set can be described thus: CYP701A6 inhibition assay (formation of end product KA). It is filed as biochemical. Conditions: Rice recombinant CYP701A6 expressed in insect cells; 10 μM ent-kaurene; formation of KA; read-out: CYP701A IC50. The procedure:
To evaluate the enzymatic selectivity between CYP707A and CYP701A, we examined the inhibitory activity against recombinant rice containing CYP701A6 expressed in insect cells using a baculovirus vector. This enzyme catalyses all three steps to KA via the corresponding alcohol and aldehyde, and consequently, the kinetic analysis is very complicated. Therefore, we evaluate the IC50 value for the formation of the end product, KA, instead of the KI value.
Reaction mixtures, containing 0.058 μM of […] microsomes, ATR2 (0.115 U), ent-kaurene (final concentration of 10 μM), inhibitors (0 for control, 1.5–1,500 μM in 8 μL dimethylformamide), and 20 mM NADPH in 500 mM potassium phosphate buffer (pH 7.4), were incubated at 30 °C for 10 min. Reactions were initiated by adding NADPH and stopped by the addition of 100 μL of 1 M HCl. Abietic acid, as the internal standard, was then added to the reaction product, which was extracted with EtOAc (400 μL × 3). The organic phase was dried over Na2SO4 and concentrated in vacuo. To derivatize the reaction products, MeOH (50 μL) and trimethylsilyldiazomethane (2 M in 5 μL hexane) were added, and the reaction mixture was incubated at room temperature for 10 min. The organic solvent was removed under N2, and samples were adjusted to 150 μL with hexane before a gas chromatography-mass spectrometry analysis (QP2010-plus; Shimadzu Corp., Kyoto, Japan). The conditions were as follows: the column was DB-5ms (0.25 mm id × 15 m, 0.25 μm film thickness; Agilent J & W, Folsom, CA, USA), the carrier gas was He, the flow rate was 1.65 mL min^−1, the injection port temperature was 280 °C, splitless injection, and the programmed column temperature was a step gradient of 80 °C for 1 min, 80–200 °C at 18 °C min^−1, 200–210 °C at 2 °C min^−1, 210–280 °C at 30 °C min^−1, and then 280 °C for 3 min. The KA content was calculated from the area ratio of molecular and fragment ions of methyl KA (m/z 316, 273, and 257) to those of methyl abietate (m/z 316 and 256). The inhibition ratio was defined as [(A − B)/A] × 100, where A = the amount of methyl KA/methyl abietate when the inhibitor was absent from the reaction mixture (control), and B = the amount of methyl KA/methyl abietate when the inhibitor was present. All of the tests were conducted at least three times.

Data set [2] has as its system maize stomatal movement. Briefly: Thermal imaging and transpirational water loss analysis in maize. The class given is in vivo. The following applies: 10 mL of 100 μM sprayed per plant, overnight. The procedure:
The effects of (-)-Abz-[…] were also determined relative to stomatal apertures. Arabidopsis grown in soil pots underwent moderate drought stress under the optimal growth conditions of 22 °C and 60% relative humidity. Under these growth conditions, the leaf surface temperature of the mock-treated controls was 19.5 °C, which was lower than the surrounding atmospheric temperature because of transpirational water loss (Fig. 6a,b)[30]. […] Finally, we examined the effects of (-)-Abz-[…] on drought tolerance under more practical conditions. Three-week-old Arabidopsis were sprayed with an aqueous solution containing 50 μM (-)-Abz-[…]. Water was not supplied for 12 days, and then the plants were rehydrated. […] We also tested the effects of (-)-Abz-[…] on a monocot crop, maize, to evaluate whether (-)-Abz-[…] affected stomatal movement and enhanced ABA response across plant species. […] Thus, the effects of (-)-Abz-[…] were not restricted to the model plant Arabidopsis. Figure 7 Effects of (-)-Abz-[…] on maize. (a) Thermal images of the leaf surface temperatures of (-)-Abz-[…]-treated maize plants. (b) Leaf surface temperatures of (-)-Abz-[…]-treated maize plants. The stomatal conductance (c) and transpiration rate (d) in (-)-Abz-[…]-treated maize at different light intensities. […] Values are means with s.d. (n = 4 for leaf surface temperature, n = 3 for stomatal conductance and transpiration rate). (e) Effects of (-)-Abz-[…] on endogenous ABA levels. (f) Expression levels of ZmLEA, Zm.12309.1.S and ZmCOR410 after the (-)-Abz-[…] treatment. […] After an overnight incubation, the conductance and transpiration rate were analysed using an LI-6400 (Li-Cor Biosciences), and the leaf surface temperatures were measured using a thermal imaging camera ([…], Nippon Avionics Co., Ltd.) in the glass house. Temperatures on the leaf surfaces were analysed by NS9200 software (Nippon Avionics Co., Ltd.).

The term IC50 denotes the midpoint of a concentration-inhibition curve. With abscinazole-E3M [(−)-6], the half-maximal inhibitory concentration (IC50) in data set [1] stood at 0.78 µM. In addition, in data set [2], the Leaf surface temperature result is given as “increased the leaf surface temperature”, the Stomatal conductance result is on record as “suppressed” and the Transpiration rate entry is “suppressed”.
